Reference: ChEMBL document CHEMBL6182898, “Design, synthesis and bioevaluation of novel hydrazide derivatives as enhancers of immunotherapy and DNA-damage response in antitumor therapy” (Eur J Med Chem, 2025)
Calls of active or inactive are those of the source. The rule behind the calls is not given here.

Tests used:
[1] = system: 4T1; experiment: Synergistic induction of DNA damage in mouse 4T1 cells implanted in mouse assessed as decrease in PARP level at 25 mg/kg/day in presence of olaparib by IHC analysis; type: functional, organism-based
[2] = system: 4T1; experiment: Induction of DNA damage in mouse 4T1 cells assessed as decrease in PARP1 level at 2 uM incubated for 24 hrs by Western blot analysis; type: functional, cell-based
[3] = system: 4T1; experiment: Synergistic induction of DNA damage in mouse 4T1 cells implanted in mouse assessed as increase in gamma-H2AX level at 25 mg/kg/day in presence of olaparib by Western blot analysis; type: functional, organism-based
[4] = molecular target: Programmed cell death 1 ligand 1 (Mus musculus) (UniProt Q9EP73); experiment: Induction of PD-L1 degradation in mouse B16-F10 cells at 5 uM incubated for 24 hrs in presence of MG-132 by Western blot analysis; type: cell-based
Chain of Programmed cell death 1 ligand 1 (Mus musculus) (Q9EP73 whole entry): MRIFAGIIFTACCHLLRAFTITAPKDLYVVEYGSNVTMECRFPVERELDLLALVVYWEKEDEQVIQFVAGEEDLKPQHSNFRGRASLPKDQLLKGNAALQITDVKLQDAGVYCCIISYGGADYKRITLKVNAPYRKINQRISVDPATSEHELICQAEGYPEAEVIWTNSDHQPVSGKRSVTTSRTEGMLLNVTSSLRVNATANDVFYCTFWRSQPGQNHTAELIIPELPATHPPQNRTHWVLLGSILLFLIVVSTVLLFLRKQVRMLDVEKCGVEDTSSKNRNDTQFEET

[5] = AUC (0 to infinity) in male Sprague-Dawley rat at 2 mg/kg, iv measured for 0.083 to 12 hrs by LC-MS/MS analysis; type: ADME, organism-based; settings: in vivo, time 0.083-12 hrs
[6] = system: 4T1; experiment: Synergistic induction of DNA damage in mouse 4T1 cells implanted in mouse assessed as increase in gamma-H2AX level at 25 mg/kg/day in presence of olaparib by IHC analysis; type: functional, organism-based
[7] = system: 4T1; experiment: Induction of DNA damage in mouse 4T1 cells assessed as increase in gamma-H2AX level at 5 uM by immunofluorescence based analysis; type: functional, cell-based
[8] = Toxicity in male C57BL/6J mouse implanted with mouse B16-F10 cells assessed as histopathological damage in kidney at 25 mg/kg, IG treated for 14 days consecutively in presence of NP-19 by H and E staining based analysis; type: organism-based; settings: in vivo, po, 336 h, time 14 day
[9] = Toxicity in male C57BL/6J mouse implanted with mouse B16-F10 cells assessed as histopathological damage in liver at 25 mg/kg, IG treated for 14 days consecutively in presence of NP-19 by H and E staining based analysis; type: organism-based; settings: in vivo, po, 336 h, time 14 day
[10] = system: B16-F10; experiment: Induction of antitumor immunity in mouse B16-F10 cells implanted in male C57BL/6J mouse assessed as CD3+CD4+ T cell infiltration at 25 mg/kg, IG treated for 14 days consecutively in presence of NP-19 by flow cytometry (reference value: 7.4 %); type: functional; settings: time 14 day
[11] = Tmax in male Sprague-Dawley rat at 2 mg/kg, iv measured for 0.083 to 12 hrs by LC-MS/MS analysis; type: ADME, organism-based; settings: in vivo, time 0.083-12 hrs
[12] = molecular target: T1, Histone deacetylase 3 (Mus musculus) (UniProt O88895); experiment: In vivo inhibition of HDAC3 in mouse B16-F10 cells implanted in male C57BL/6J mouse assessed as decrease in PD-L1 level at 50 mg/kg, IG treated for 14 days consecutively by immunofluorescence based analysis; type: functional, organism-based; settings: time 14.0 day
T1 sequence (whole entry): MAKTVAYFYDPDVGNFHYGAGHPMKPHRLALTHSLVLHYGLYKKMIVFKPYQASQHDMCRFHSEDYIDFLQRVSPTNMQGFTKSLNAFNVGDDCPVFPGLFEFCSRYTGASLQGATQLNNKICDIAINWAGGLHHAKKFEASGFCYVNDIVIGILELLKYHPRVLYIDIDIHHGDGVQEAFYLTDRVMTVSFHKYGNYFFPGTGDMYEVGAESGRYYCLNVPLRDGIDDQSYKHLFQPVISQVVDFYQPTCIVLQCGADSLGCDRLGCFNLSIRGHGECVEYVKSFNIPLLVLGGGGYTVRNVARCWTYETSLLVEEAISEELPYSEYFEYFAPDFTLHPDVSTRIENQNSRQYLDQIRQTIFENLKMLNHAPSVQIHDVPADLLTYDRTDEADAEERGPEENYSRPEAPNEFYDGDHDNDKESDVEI

[13] = system: B16-F10; experiment: Induction of antitumor immunity in mouse B16-F10 cells implanted in male C57BL/6J mouse assessed as increase in T cell infiltration at 25 mg/kg, IG treated for 14 days consecutively in presence of NP-19 by immunofluorescence based analysis; type: functional, organism-based; settings: time 14.0 day
[14] = system: 4T1; experiment: Synergistic induction of DNA damage in mouse 4T1 cells implanted in mouse assessed as decrease in PARP level at 25 mg/kg/day in presence of olaparib by Western blot analysis; type: functional, organism-based
[15] = AUMC (0 to t) in male Sprague-Dawley rat at 2 mg/kg, iv measured for 0.083 to 12 hrs by LC-MS/MS analysis; type: ADME, organism-based; settings: in vivo, time 0.083-12 hrs
[16] = molecular target: T1, Histone deacetylase 3 (Mus musculus); experiment: In vivo inhibition of HDAC3 in mouse B16-F10 cells implanted in male C57BL/6J mouse assessed as increase in Ac-H3 level at 50 mg/kg, IG treated for 14 days consecutively by immunofluorescence based analysis; type: functional, organism-based; settings: time 14.0 day
[17] = system: B16-F10; experiment: Induction of antitumor immunity in mouse B16-F10 cells implanted in male C57BL/6J mouse assessed as CD3+CD8+ T cell infiltration at 50 mg/kg, IG treated for 14 days consecutively by flow cytometry (reference value: 10 %); type: functional; settings: time 14 day
[18] = system: B16-F10; experiment: Induction of antitumor immunity in mouse B16-F10 cells implanted in male C57BL/6J mouse assessed as CD3+CD4+ T cell infiltration at 50 mg/kg, IG treated for 14 days consecutively by flow cytometry (reference value: 7.4 %); type: functional; settings: time 14 day
[19] = system: B16-F10; experiment: Antitumor activity against mouse B16-F10 cells implanted in male C57BL/6J mouse at 50 mg/kg, IG treated for 14 days consecutively relative to control; type: functional; settings: B16-F10, po, 336 h, time 14 day, read-out: TGI
[20] = system: 4T1; experiment: Induction of DNA damage in mouse 4T1 cells implanted in mouse assessed as increase in gamma-H2AX level at 50 mg/kg/day by Western blot analysis; type: functional, organism-based
[21] = VRT (0 to infinity) in male Sprague-Dawley rat at 20 mg/kg, po measured for 0.083 to 12 hrs by LC-MS/MS analysis; type: ADME, organism-based; settings: in vivo, time 0.083-12 hrs
[22] = system: 4T1; experiment: Induction of DNA damage in mouse 4T1 cells assessed as decrease in PARP1 level at 5 uM by immunofluorescence based analysis; type: functional, cell-based
[23] = system: 4T1; experiment: Synergistic induction of DNA damage in mouse 4T1 cells implanted in mouse assessed as increase in gamma-H2AX level at 25 mg/kg/day in presence of olaparib by immunofluorescence based analysis; type: functional, organism-based
[24] = Toxicity in male C57BL/6J mouse implanted with mouse B16-F10 cells assessed as histopathological damage in heart at 50 mg/kg, IG treated for 14 days consecutively by H and E staining based analysis; type: organism-based; settings: in vivo, po, 336 h, time 14 day
[25] = VRT (0 to infinity) in male Sprague-Dawley rat at 2 mg/kg, iv measured for 0.083 to 12 hrs by LC-MS/MS analysis; type: ADME, organism-based; settings: in vivo, time 0.083-12 hrs
[26] = Clast in male Sprague-Dawley rat at 20 mg/kg, po measured for 0.083 to 12 hrs by LC-MS/MS analysis; type: ADME, organism-based; settings: in vivo, time 0.083-12 hrs

CCCNNC(=O)CCCCCCNC(=O)c1cnc(-c2ccc(NC(=O)OC(C)(C)C)cc2)s1
Activity [1]: Active | Activity [2]: Active | Activity [3]: Active | Activity [4]: Active | AUC(0-inf) [5]: 658 ng·h/mL | Activity [6]: Active | Activity [7]: Active | Activity [8]: Non-toxic | Activity [9]: Non-toxic | Activity [10]: 28% | Tmax [11]: 4.8 min | inhibition [12]: Active | Activity [13]: Active | Activity [14]: Active | AUMCt [15]: 223.08 hr.hr.ug/L | inhibition [16]: Active | Activity [17]: 22% | Activity [18]: 12% | inhibition in vivo at 50 mg/kg [19]: 59% | Activity [20]: Active | VRT [21]: 14.7 h² | Activity [22]: Active | Activity [23]: Active | Activity [24]: Non-toxic | VRT [25]: 0.98 h² | Clast [26]: 0.27 ng/mL
